Data from patent US20130280392A1, “PROCESS FOR CONTROLLING MICROORGANISMS IN BEVERAGE PRODUCTS” (DeLaval Holding AB, priority 2011, published 2013).

Experiments:
[1] = tested on: Alicyclobacillus acidoterrestris; experiment: Antimicrobial efficacy of PAA in organic apple and carrot juice, MPN viability count; assay type: cell-based; settings: 22° C.
Experimental: In this experiment, the antimicrobial efficacy of PAA in organic apple and carrot juice was measured by challenging the juices with 1×10^7 CFU/ml of Alicyclobacillus acidoterrestris, a spore-forming thermophile commonly present in juice operations. Immediately following bacterial challenge, the juice was dosed with different concentrations of PAA and incubated at room temperature (22° C.) for 10 minutes without agitation. After the subscribed contact time, the PAA was neutralized with D/E broth and a viability count for each of the juices was performed using the most probable number technique (MPN).

[2] = Degradation of PAA in juices over time, residual PAA by titration with 0.1N sodium thiosulfate; assay type: physicochemical; settings: for PAA concentration (below detectable limit): after 10 min at 195° F. (90.5° C.); for half-life at 100 ppm: room temperature
Experimental: The half life of PAA decreases with increasing temperature. The half life of 100 ppm solution of PAA in carrot juice (Brix=8.8) at room temperature is less than 20 min. Similarly, the half life of a 100 ppm solution of PAA in apple juice (Brix=11.4) at room temperature is less than 30 min. After 10 min at 195° F. (90.5° C.), the PAA concentration of a 20 ppm solution of PAA in either carrot (Brix=8.8) or apple juice (Brix=11.4) is below the detectable limit of 0.89 ppm by titration with 0.1N sodium thiosulfate. Thus, when the juice is pasteurized and sent to an evaporator for concentration, any remaining PAA in solution would be converted to acetic acid, water, and oxygen, thereby leaving no or substantially no PAA remaining in the final juice product 32. Briefly, during the titration process, any oxidizing species present in the sample converts a solution of potassium iodide to iodine in the presence of ammonium paramolybdate and phosphoric acid. Subsequently, a starch solution is added to form a deep blue color upon binding iodine. The PAA concentration can be calculated based on the volume of titrant needed to revert the deep blue color.
In this experiment, several juices were dosed with peracetic acid (PAA) (peroxyacetic acid 5.6%, hydrogen peroxide 26.5%) and kept at a controlled temperature (22° C. or 90° C.) for a given period of time to determine how the PAA would degrade over time. At the end of the given time period, the level of PAA remaining in the juice was measured by titration with 0.1N sodium thiosulfate. It can be seen that the PAA decomposed quite rapidly in the various juices, particularly when exposed to elevated temperatures.

[3] = tested on: Alicyclobacillus acidoterrestris ATCC 49025; experiment: Germicidal efficacy of PAA and chlorine dioxide in dilute nutrient solution, apple juice and carrot juice, MPN viability count; assay type: cell-based; settings: for LR: 22° C., 10 minutes contact, inoculum 1.40×10^7 CFU/ml; for reduction in the bacteria: all treated samples of Table 3 (5 and 10 ppm; nutrient solution, apple juice, carrot juice)
Experimental: In this experiment, the germicidal efficacy of various concentrations of PAA and chlorine dioxide (by dilution of CDG Solution 3000™, CDG Environmental LLC) at 22° C. after 10 minutes of contact time was determined in a dilute nutrient solution (Tryptone pancreatic digest of casein 1.0 g/L and NaCl 8.5 g/L), apple juice, and carrot juice. Alicyclobacillus acidoterrestris ATCC 49025 was used as the inoculum at a concentration of 1.40×10^7 CFU/ml. After the subscribed contact time, the PAA was neutralized with D/E broth and chlorine dioxide with a peroxide neutralizer, and a viability count for each of the juices was performed using the most probable number technique (MPN). The results are shown in Table 3, and graphically in FIG. 5.

[4] = Chlorine dioxide demand of apple and carrot juice (HACH DPD Method #10126); assay type: physicochemical; settings: 22° C., 10 minutes
Experimental: In this experiment, apple juice and carrot juice were exposed to pure and stable chlorine dioxide (CDG Solution 3000™, CDG Environmental, LLC) in order to determine their respective chlorine dioxide demands, as determined by HACH DPD Method for Chlorine dioxide (Method #10126). The juice samples were exposed to the chlorine dioxide under room temperature conditions (22° C.), and then the residual concentrations determined 10 minutes after exposure. It can be seen that the chlorine dioxide demands were relatively high.

[5] = 5 ppm, dilute nutrient solution
[6] = 10 ppm, dilute nutrient solution
[7] = apple juice, Brix 11.4, exposed concentration 5 ppm
[8] = apple juice, Brix 11.4, exposed concentration 10 ppm
[9] = apple juice, Brix 11.4, exposed concentration 25 ppm
[10] = apple juice, Brix 11.4, exposed concentration 60 ppm
[11] = carrot juice, Brix 8.8, exposed concentration 5 ppm
[12] = carrot juice, Brix 8.8, exposed concentration 10 ppm
[13] = carrot juice, Brix 8.8, exposed concentration 25 ppm
[14] = carrot juice, Brix 8.8, exposed concentration 60 ppm

Question: For CC(=O)OO [PAA, peracetic acid], which “loss in cell viability” value ([1]; PAA dose as low as 0.35 ppm, 10 minutes) is on record?
Answer: Its value is “substantial loss in cell viability”.

Question: And the “reduction in the bacteria” value ([1]; all PAA-treated samples, 1×10^7 CFU/ml challenge, 10 minutes (FIG. 4))?
Answer: Its value is > 4 log.

Question: And the “PAA concentration (below detectable limit)” value ([2]; 20 ppm PAA in apple juice (Brix=11.4))?
Answer: The value was < 0.89 ppm.

Question: And the “PAA concentration (below detectable limit)” value ([2]; 20 ppm PAA in carrot juice (Brix=8.8))?
Answer: Its value is < 0.89 ppm.

Question: And the half-life at 100 ppm ([2]; 100 ppm solution of PAA in apple juice (Brix=11.4))?
Answer: Its half-life at 100 ppm is < 30 min.

Question: What about the half-life at 100 ppm ([2]; 100 ppm solution of PAA in carrot juice (Brix=8.8)) of the same compound?
Answer: Its half-life at 100 ppm is < 20 min.

Question: What about the PAA read ([2]; apple juice, Brix 11.4, PAA dosed 20 ppm, 90° C., 10 min, followed by 5 min in ice) of the same compound?
Answer: Its PAA read is <0.98 ppm.

Question: And the PAA read ([2]; apple juice, Brix 11.4, PAA dosed 100 ppm, 22° C., 60 min)?
Answer: Its PAA read is 19.6 ppm.

Question: What about the PAA read ([2]; apple juice, Brix 11.4, PAA dosed 100 ppm, 90° C., 10 min, followed by 5 min in ice) of the same compound?
Answer: The PAA read was 15.7 ppm.

Question: And the PAA read ([2]; carrot juice, Brix 8.8, PAA dosed 20 ppm, 90° C., 10 min, followed by 5 min in ice)?
Answer: The PAA read was <0.98 ppm.

Question: What about the PAA read ([2]; carrot juice, Brix 8.8, PAA dosed 100 ppm, 22° C., 60 min) of the same compound?
Answer: Its PAA read is 3.92 ppm.

Question: What about the PAA read ([2]; carrot juice, Brix 8.8, PAA dosed 100 ppm, 90° C., 10 min, followed by 5 min in ice) of the same compound?
Answer: The PAA read was 2.94 ppm.

Question: And the LR ([3]; 5 ppm, apple juice)?
Answer: The LR was 4.34.

Question: And the LR ([3]; 5 ppm, carrot juice)?
Answer: The LR was 4.18.

Question: What about the LR [3, 5] of the same compound?
Answer: Its LR is 4.18.

Question: What about the LR ([3]; 10 ppm, apple juice) of the same compound?
Answer: The LR was 4.48.

Question: What about the LR ([3]; 10 ppm, carrot juice) of the same compound?
Answer: The LR was 4.34.

Question: And the LR [3, 6]?
Answer: The LR was 4.51.

Question: What about the “reduction in the bacteria” value [3] of the same compound?
Answer: Its value is > 4 log.

Question: What does the source list for [O][Cl+][O-] [chlorine dioxide]?
Answer: LR ([3]; 5 ppm, apple juice): 0.65; LR ([3]; 5 ppm, carrot juice): 1.12; LR [3, 5]: 1.34; LR ([3]; 10 ppm, apple juice): 1.18; LR ([3]; 10 ppm, carrot juice): 1.57; LR [3, 6]: 1.24; reduction in the bacteria [3]: ~1 log; Demand [4, 7]: >4.95 ppm; Read Concentration [4, 7]: <0.05 ppm; Demand [4, 8]: 9.32 ppm; Read Concentration [4, 8]: 0.68 ppm; Demand [4, 9]: 24.3 ppm; Read Concentration [4, 9]: 0.7 ppm; Demand [4, 10]: 57.8 ppm; Read Concentration [4, 10]: 2.2 ppm; Demand [4, 11]: >4.95 ppm; Read Concentration [4, 11]: <0.05 ppm; Demand [4, 12]: >9.95 ppm; Read Concentration [4, 12]: <0.05 ppm; Demand [4, 13]: >24.97 ppm; Read Concentration [4, 13]: <0.05 ppm; Demand [4, 14]: 59.87 ppm; Read Concentration [4, 14]: 0.13 ppm
